# Source: US20010055756A1, “Internal de novo initiation sites of the HCV NS5B polymerase and use thereof” (priority 2000, published 2001)
# Entries after “also recorded” stand apart in the source; their conditions may differ.
# Test system: HCV NS5B polymerase
# Assay: Testing of GTP analogs in the NS5B de novo initiation reaction with RNA template 24-1
# Type: biochemical, hepatitis C virus
# Conditions: analog at 500 μM added to reactions with 100 μM or 500 μM GTP, 5 nM NS5B, 10 nM template 24-1, 2.5 h
# Protocol: Unless indicated otherwise, the standard reactions that incorporated [α-^33P]UTP contained 5 nM of purified NS5B and 10-50 nM of the indicated RNA template (i.e.: 24, 24-1, 128-4, 130-21, 150-41 or mutant templates) incubated at 22° C. for 2.5 h in 22.5 mM Tris-HCl pH 7.5, 5 mM MgCl2, 1 mM EDTA, 1.5 mM DTT, 30 mM NaCl, 0.33% N-Dodecyl-β-D-Maltoside, 0.01% Igepal CA-630, 5% DMSO, 5 μCi [α-^33P]UTP, 10 μM UTP, 500 μM of the three other rNTPs and 0.16 U/μl RNase inhibitor (Promega). NS5B polymerase reactions that incorporated γ-^32P into the radioactively labeled 5′product were supplemented with either 8 μCi of [γ-^32P]GTP or [γ-^32P]ATP in place of [α-^33P]UTP in the standard reaction. The reactions were then supplemented with PK buffer (50 mM Tris HCl pH 7.5 150 mM NaCl, 0.5% SDS) and treated with Proteinase K (0.8 μg /μl) and glycogen (0.1 μg/μl) for 30 min at 37° C. RNA was extracted with phenol-chloroform and precipitated with isopropanol. The RNA pellet was dissolved in 10-15 μl of denaturing solution (80% formamide, 10 mM EDTA), heated for 10 min at 70-75° C. and analysed on denaturing 8 M urea/5% polyacrylamide gels. Gels were dried and radioactive products visualized with a phospho-imager (Molecular Dynamics).
# m7GpppG and GpppG were purchased from Ambion; Ribavirin monophosphate and Ribavirin triphosphate were purchased from Chemgenes (Ashland, Mass.); ddGTP was from Amersham; Caged GTP was from Molecular Probes. All other GTP analogs were from Sigma/Aldrich. Each of the analogs was added (at 500 μM) to the NS5B polymerization reaction containing either: 100 μM or 500 μM GTP (reference reactions). Stimulation by GTP itself, as a positive control, was performed such that the reactions then contained 600 μM or 1 mM GTP (respectively labeled as the +500 μM GTP bars). The standard polymerase reactions incorporating [α-^33P]UTP were incubated for 2.5 h in the presence of 5 nM NS5B and 10 nM of RNA template 24-1. The reactions were stopped by spotting 8 μl on a DE81 filters which were then washed extensively (3×) with 1M NaPO4 pH 7 and dried. The radioactivity incorporated into product RNA that was retained on the DE-81 filters was measured in a scintillation counter. The effect of the various analogs on the reaction is represented by the fold stimulation of activity compared to 100μM or 500μM GTP (reference reaction bars). 5′-p-FSBA=5′-p-fluorosulfonyl-benzoyladenosine
Compound,effect on de novo initiation reaction (fold stimulation relative to GTP alone),also measured
Nc1nc2c(ncn2[C@@H]2O[C@H](COP(=O)(O)O)[C@@H](O)[C@H]2O)c(=O)[nH]1 [GMP],stimulating,
Nc1nc2c(ncn2C(C=O)OC(C=O)COP(=O)(O)OP(=O)(O)OP(=O)(O)O)c(=O)[nH]1.[Na] (stereo not drawn) [GTP 2′3′-dialdehyde],clear inhibitor; also recorded: inhibiting,effect on de novo initiation reaction (fold stimulation relative to GTP alone) (listed as GTP 2′3′dialdehyde): inhibitory
Nc1nc2c(ncn2[C@@H]2O[C@H](COP(=O)(O)OP(=O)(O)OP(=O)(O)O)[C@@H](O)[C@H]2O)c(=O)[nH]1 [GTP],activation,
Nc1nc2c(ncn2[C@@H]2O[C@H](COP(=O)(O)OP(=O)(O)OP(=O)(O)OC[C@H]3O[C@@H](n4cnc5c(=O)[nH]c(N)nc54)[C@H](O)[C@@H]3O)[C@@H](O)[C@H]2O)c(=O)[nH]1 [GpppG],most efficient analogs in stimulating de novo initiation; also recorded: stimulating; also recorded: stimulate,
CC(OP(=O)(O)OP(=O)(O)OP(=O)(O)OC[C@H]1O[C@@H](n2cnc3c(=O)[nH]c(N)nc32)[C@H](O)[C@@H]1O)c1ccccc1[N+](=O)[O-] (stereo partly drawn) [caged-GTP],stimulating,
Nc1nc2c(ncn2[C@@H]2O[C@H](CO)[C@@H](O)[C@H]2O)c(=O)[nH]1 [guanosine],stimulating; also recorded: stimulate,
"Cn1c[n+]([C@@H]2O[C@H](COP(=O)(O)OP(=O)([O-])OP(=O)(O)OC[C@H]3O[C@@H](n4cnc5c(=O)[nH]c(N)nc54)[C@H](O)[C@@H]3O)[C@@H](O)[C@H]2O)c2nc(N)[nH]c(=O)c21 [m7 GpppG, 7-methyl GpppG]",most efficient analogs in stimulating de novo initiation,effect on de novo initiation reaction (fold stimulation relative to GTP alone) (listed as 7-methyl GpppG): stimulating; also recorded: stimulate
"NC(=O)c1ncn([C@@H]2O[C@H](CO[P@@](=O)(O)O[P@](=O)(O)OP(=O)(O)O)[C@@H](O)[C@H]2O)n1 [ribavirin tri-phosphate, Ribavirin triphosphate]",moderate level of inhibition,effect on de novo initiation reaction (fold stimulation relative to GTP alone) (listed as ribavirin triphosphate): inhibiting; also recorded: inhibitory
GDP-γ-S,stimulating,
